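Results reflect a 48-hour exposure of cells in 96-well plates to compound at five concentrations. At the TGI there is no net growth.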
Assays:
Assay in all cases: NCI tumour cell line growth inhibition, 48 h
[1] = test system: TK-10 renal
[2] = test system: ACHN renal
[3] = test system: SNB-75 CNS
[4] = test system: M14 melanoma
[5] = test system: MDA-MB-435
[6] = test system: SF-268 CNS
[7] = test system: HCT-15 colon
[8] = test system: A549 NSCLC
[9] = test system: BT-549 breast
[10] = test system: NCI-H460 lung
[11] = test system: SW-620 colon
[12] = test system: IGROV1 ovarian
[13] = test system: SK-MEL-28 melanoma
[14] = test system: SK-MEL-5 melanoma
[15] = test system: HOP-62 NSCLC
[16] = test system: SK-MEL-2 melanoma
[17] = test system: HCT-116 colon
[18] = test system: K-562 leukemia
[19] = test system: SK-OV-3 ovarian
[20] = test system: DU-145 prostate
[21] = test system: SN12C renal
[22] = test system: MCF7 breast
[23] = test system: OVCAR-8 ovarian
[24] = test system: U251 CNS
[25] = test system: COLO 205 colon
[26] = test system: SF-295 CNS
[27] = test system: NCI-H522 lung
[28] = test system: OVCAR-5 ovarian
[29] = test system: NCI-H23 lung
[30] = test system: SR leukemia
[31] = test system: UACC-62 melanoma
[32] = test system: OVCAR-4 ovarian
[33] = test system: SNB-19 CNS
[34] = test system: T-47D breast
[35] = test system: MALME-3M melanoma
[36] = test system: HT29 colon
[37] = test system: OVCAR-3 ovarian
[38] = test system: PC-3 prostate
[39] = test system: MDA-MB-231 breast
[40] = test system: HS 578T breast
[41] = test system: 786-0 renal
[42] = test system: EKVX NSCLC
[43] = test system: MOLT-4 leukemia
[44] = test system: UACC-257 melanoma
[45] = test system: RPMI-8226 leukemia
[46] = test system: NCI/ADR-RES ovarian
[47] = test system: MDA-N
[48] = test system: LOX IMVI melanoma
[49] = test system: NCI-H226 lung
[50] = test system: UO-31 renal
[51] = test system: RXF 393 renal
[52] = test system: A498 renal
[53] = test system: CCRF-CEM leukemia
[54] = test system: CAKI-1 renal
[55] = test system: SF-539 CNS
[56] = test system: HL-60(TB) leukemia
[57] = test system: KM12 colon
[58] = test system: HCC-2998 colon
[59] = test system: HOP-92 NSCLC

For `COc1ccc(C(OCC2OC(n3ccc(NC(=O)c4ccccc4)nc3=O)CC2OP2(=S)SCCS2)(c2ccccc2)c2ccc(OC)cc2)cc1` (stereo unspecified), the TGI [1] was over 100 µM, the TGI [2] was 61.5 µM and the TGI [3] was 46.6 µM. It also gave a TGI [4] of 66.2 µM, a TGI [5] of over 100 µM and a TGI [6] of 44.1 µM. The TGI [7] was over 100 µM, the TGI [8] was over 100 µM and the TGI [9] was 53.6 µM. It also gave a TGI [10] of over 100 µM, a TGI [11] of 44 µM and a TGI [12] of over 100 µM. It also gave a TGI [13] of 90.3 µM, a TGI [14] of 43.9 µM and a TGI [15] of 43.9 µM. For the same molecule, the TGI [16] was over 100 µM, the TGI [17] was over 100 µM and the TGI [18] was over 100 µM. It also gave a TGI [19] of 64.2 µM, a TGI [20] of over 100 µM and a TGI [21] of 58.6 µM. The TGI [22] was over 100 µM, the TGI [23] was 63.2 µM and the TGI [24] was 86.5 µM. The TGI [25] was over 10 µM, the TGI [26] was 97.9 µM and the TGI [27] was 53 µM. It also gave a TGI [28] of 94.6 µM, a TGI [29] of over 100 µM and a TGI [30] of over 100 µM. For the same molecule, the TGI [31] was 34.9 µM, the TGI [32] was 68.6 µM and the TGI [33] was 86.4 µM. It also gave a TGI [34] of over 100 µM, a TGI [35] of 70.2 µM and a TGI [36] of 69.7 µM. The TGI [37] was 58.5 µM, the TGI [38] was 41.5 µM and the TGI [39] was over 100 µM. The TGI [40] was 76.3 µM, the TGI [41] was 82 µM and the TGI [42] was over 100 µM. For the same molecule, the TGI [43] was over 100 µM, the TGI [44] was over 100 µM and the TGI [45] was over 100 µM. For the same molecule, the TGI [46] was over 10 µM, the TGI [47] was over 10 µM and the TGI [48] was 33.1 µM. The TGI [49] was 67.4 µM, the TGI [50] was over 100 µM and the TGI [51] was 88.1 µM.
`COc1ccc(C(C2=C(O)COC2=O)c2cc3c(cc2O)OCO3)cc1OC` (stereo unspecified) was tested, and the TGI [1] was over 100 µM, the TGI [52] was over 100 µM and the TGI [53] was over 100 µM. For the same molecule, the TGI [2] was over 100 µM, the TGI [3] was over 100 µM and the TGI [54] was over 100 µM. For the same molecule, the TGI [4] was over 100 µM, the TGI [5] was over 100 µM and the TGI [6] was over 100 µM. For the same molecule, the TGI [7] was over 100 µM, the TGI [8] was over 100 µM and the TGI [9] was over 100 µM. The TGI [10] was over 100 µM, the TGI [55] was over 100 µM and the TGI [11] was over 100 µM. The TGI [12] was over 100 µM, the TGI [13] was over 100 µM and the TGI [14] was over 100 µM. The TGI [15] was over 100 µM, the TGI [16] was over 100 µM and the TGI [17] was over 100 µM. The TGI [18] was over 100 µM, the TGI [19] was over 100 µM and the TGI [20] was over 100 µM. The TGI [21] was over 100 µM, the TGI [22] was over 100 µM and the TGI [56] was over 100 µM. The TGI [23] was over 100 µM, the TGI [25] was over 100 µM and the TGI [26] was over 100 µM. It also gave a TGI [28] of over 100 µM, a TGI [57] of over 100 µM and a TGI [30] of over 100 µM. The TGI [31] was over 100 µM, the TGI [32] was over 100 µM and the TGI [33] was over 100 µM. It also gave a TGI [35] of over 100 µM, a TGI [36] of over 100 µM and a TGI [37] of over 100 µM. It also gave a TGI [38] of over 100 µM, a TGI [39] of over 100 µM and a TGI [40] of over 100 µM. For the same molecule, the TGI [41] was over 100 µM, the TGI [42] was over 100 µM and the TGI [43] was over 100 µM. For the same molecule, the TGI [44] was over 100 µM, the TGI [45] was over 100 µM and the TGI [46] was over 100 µM. For the same molecule, the TGI [47] was over 100 µM, the TGI [58] was over 100 µM and the TGI [59] was over 100 µM. For the same molecule, the TGI [48] was over 100 µM, the TGI [49] was over 100 µM and the TGI [50] was over 100 µM. It also gave a TGI [51] of over 100 µM.
